Reference: PMC5189922 (Journal of medicinal chemistry, 2016)
Entries after “also recorded” stand apart in the source; their conditions may differ.

How the values were obtained:
human κ-opioid receptor = human κ-opioid receptor (Homo sapiens, UniProt P41145); format: cell-based
[1] = tested on: human µ-opioid receptor β-arrestin-2; assay: MOR-mediated β-arrestin-2 recruitment; format: cell-based
Hot water = format: in vivo, mice; conditions: for antinociceptive effect in tail-flick assay: male B6-SJL mice, 10 s cutoff
[2] = Cumulative dose-response tail-flick assay and tolerance evaluation; format: in vivo, mice; conditions: cumulative dosing, day 9 after daily 10 mg/kg s.c. on days 2–8 (tolerance)
[3] = Accelerating rotarod performance assay
[4] = Conditioned place preference; conditions: male Sprague Dawley rats, vs vehicle
human µ-opioid receptor = human µ-opioid receptor (Homo sapiens, UniProt P35372); format: cell-based
human µ-opioid receptor, sequence (P35372 whole entry): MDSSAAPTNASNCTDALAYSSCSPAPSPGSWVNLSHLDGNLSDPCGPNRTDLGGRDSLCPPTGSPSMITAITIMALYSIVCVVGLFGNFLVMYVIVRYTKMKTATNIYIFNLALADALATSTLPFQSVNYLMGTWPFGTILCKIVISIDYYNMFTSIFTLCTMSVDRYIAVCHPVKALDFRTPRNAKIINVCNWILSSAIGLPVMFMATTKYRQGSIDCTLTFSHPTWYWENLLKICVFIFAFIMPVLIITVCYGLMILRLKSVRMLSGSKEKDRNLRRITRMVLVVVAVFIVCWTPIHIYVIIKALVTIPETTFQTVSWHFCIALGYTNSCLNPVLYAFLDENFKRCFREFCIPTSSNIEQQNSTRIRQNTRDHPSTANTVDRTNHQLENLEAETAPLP

human κ-opioid receptor, sequence (P41145 whole entry): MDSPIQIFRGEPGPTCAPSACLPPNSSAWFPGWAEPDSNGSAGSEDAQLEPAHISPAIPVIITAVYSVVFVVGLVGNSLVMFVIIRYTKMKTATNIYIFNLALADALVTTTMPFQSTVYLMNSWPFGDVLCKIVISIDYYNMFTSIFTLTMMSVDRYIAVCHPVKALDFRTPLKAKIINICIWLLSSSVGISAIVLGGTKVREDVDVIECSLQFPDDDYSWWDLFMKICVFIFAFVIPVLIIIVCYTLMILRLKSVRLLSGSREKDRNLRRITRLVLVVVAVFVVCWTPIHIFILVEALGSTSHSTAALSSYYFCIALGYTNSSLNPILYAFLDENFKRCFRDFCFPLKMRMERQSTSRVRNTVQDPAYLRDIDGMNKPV

COC(=O)[C@@H]1C=C(OC(=O)c2ccccc2)C(=O)[C@H]2[C@@]1(C)CC[C@H]1C(=O)O[C@H](c3ccoc3)C[C@]21C [Compound 5, (2S,4aR, 6aR,7R,10aR,10bR)-Methyl 9-((benzoyl)oxy)-2-(furan-3-yl)-6a,10b-dimethyl-4,10-dioxo-2,4,4a,5,6,6a,7,10,10a,10b-decahydro-1H-benzo[f]isochromene-7-carboxylate]
activity at KORs (in words) (human κ-opioid receptor): no activity | Emax ([1]; read-out: % Efficacy ± SEM): 96 ± 3% | time of maximal antinociceptive effects (Hot water; 10 mg/kg i.p.): 30 min | antinociceptive effect in tail-flick assay (Hot water; 5 and 10 mg/kg i.p., vs vehicle): significant antinociceptive effects | antinociceptive effect after naloxone pre-treatment (Hot water; naloxone 10 mg/kg s.c. 45 min pre-treatment): blocked | EC50 antinociception day 9 [2]: 7.9 mg/kg | motor coordination / sedation on rotarod ([3]; 10 mg/kg i.p., 4 to 40 rpm over 300 s): slight sedation only at the 15 min time point | conditioned place preference (CPP score) ([4]; 5 mg/kg and 10 mg/kg i.p.): CPP score similar to the vehicle control; also recorded: Neither 5 (5 and 10 mg/kg) nor 2 (5 mg/kg) were significantly different to vehicle

COC(=O)[C@@H]1CC(=O)C(O)=C2[C@@]1(C)CC[C@H]1C(=O)O[C@H](c3ccoc3)C[C@]21C [Compound 7b, Methyl-(2S,4aR,6aS,7R,10bS)-2-(furan-3-yl)-10-hydroxy-6a,10b-dimethyl-4,9-dioxo-1,4,4a,5,6,6a,7,8,9,10b-decahydro-2H-benzo[f]isochromene-7-carboxylate]
activity at KORs (in words) (human κ-opioid receptor): completely inactive

COC(=O)[C@@H]1C[C@H](OC(=O)c2ccccc2)C(=O)[C@H]2[C@@]1(C)CC[C@H]1C(=O)O[C@H](c3ccoc3)C[C@]21C [Compound 2, herkinorin, reference compound]
activity at KORs (in words) (human κ-opioid receptor): partial agonist | EC50 ([1]; read-out: β-arrestin-2 recruitment EC50): > 3000 nM | antinociceptive effect in tail-flick assay (Hot water; 1, 5, and 10 mg/kg i.p.): no significant antinociceptive effects | motor coordination on rotarod ([3]; dose not given, data not shown): no observable effect on motor co-ordination | conditioned place preference (CPP score) ([4]; 5 mg/kg): Neither 5 (5 and 10 mg/kg) nor 2 (5 mg/kg) were significantly different to vehicle

COC(=O)[C@@H]1C=C(O)C(=O)[C@H]2[C@@]1(C)CC[C@H]1C(=O)O[C@H](c3ccoc3)C[C@]21C [Compound 7a, Methyl-(2S,4aR,6aR/S,7R,10aR,10bR)-2-(furan-3-yl)-9-hydroxy-6a,10b-dimethyl-4,10-dioxo-2,4,4a,5,6,6a,7,10,10a,10b-decahydro-1H-;benzo[f]isochromene-7-carboxylate]
activity at KORs (in words) (human κ-opioid receptor): active

CC(=O)O[C@@H]1C[C@H](NC(=O)c2ccccc2)C(=O)[C@H]2[C@@]1(C)CC[C@H]1C(=O)O[C@H](c3ccoc3)C[C@]21C [Compound 3, herkamide, reference compound]
Selectivity κ/µ (human µ-opioid receptor): >3 000

CC(=O)O[C@@H]1C=C(OC(=O)c2cccc(F)c2)C(=O)[C@H]2[C@@]1(C)CC[C@H]1C(=O)O[C@H](c3ccoc3)C[C@]21C [Compound 9b]
Selectivity κ/µ (human µ-opioid receptor): >2 000

COC(=O)[C@@H]1C[C@@H](OC(=O)c2ccccc2)C(=O)[C@H]2[C@@]1(C)CC[C@H]1C(=O)O[C@H](c3ccoc3)C[C@]21C [Compound 4]
activity at MORs (in words) (human µ-opioid receptor): complete loss of activity | activity at KORs (in words) (human κ-opioid receptor): complete loss of activity
